Laboratory results taken from patent publication US20040096481A1, “Pet food compositions having electrostatically charged ingredient” (priority 2002, published 2004).

Assay: Effect of negatively charged amino acid solutions on integrity of cat hair (scan microscope)
Settings: 0.40 g cat hair in 100 g solution, 100° F., 24 hours, 810× magnification; for degree of hair damage, 0.125% solution: 0.125% amino acid solution diluted from 1.0% solution adjusted to pH 11.3
Method: In this example, various negatively charged amino acid solutions were prepared for testing on cat hair to determine how the solution affected the integrity of the hair. First, a 1.0% amino acid solution was prepared by mixing 5.0 g amino acid with 495 g of water. The resulting pH value of each amino acid solution at this point differed, based largely upon the different pK values for each amino acid. A sufficient quantity of sodium hydroxide solution (50.0%) was added to the 1.0% amino acid solution to adjust the pH to 11.3. Weaker amino acid solutions (0.5%, 0.25%, and 0.125%) were subsequently prepared by dilution of the 1.0% solution.
Approximately 0.40 g of cat hair were mixed with 100 g samples of each respective amino acid solution. The cat hair and amino acid solution were kept at 100° F. for 24 hours. Photographs of the cat hairs were taken with a Topcon Technology Company Model ISI-X408 electrical scan microscope at 810× magnification and the degree of hair damage and loss of identifying characteristics was noted.

Compound | degree of hair damage, 0.125% solution | other results
CSCCC(N)C(=O)O (racemic) [DL-methionine] | No damage | –
C[C@H](N)C(=O)O [Alanine] | Cuticle removed | –
N[C@@H](CC(=O)O)C(=O)O [Aspartic acid] | Cuticle removed | –
N[C@@H](CS)C(=O)O [Cysteine] | No damage | –
N[C@@H](CCC(=O)O)C(=O)O [Glutamic acid] | Cuticle removed | –
NCC(=O)O [Glycine] | Cuticle removed | degree of hair damage, 0.125% solution (listed as glycine): portions of the cuticle layer have been removed thereby exposing the inner cortex layer; degree of hair damage, 0.25% solution (0.25% amino acid solution diluted from 1.0% solution adjusted to pH 11.3): cuticle 14 has separated thereby forming a channel and exposing the hair cortex; degree of hair damage, 0.5% solution (0.5% amino acid solution diluted from 1.0% solution adjusted to pH 11.3): Portions of the hair cortex 18 have been completely dissolved; degree of hair damage, 1.0% solution (1.0% amino acid solution adjusted to pH 11.3): cuticle has been removed thereby exposing the hair cortex
NCCCC[C@H](N)C(=O)O [Lysine] | No damage | –
O=C(O)[C@@H]1CCCN1 [Proline] | Cuticle removed | –
